{"source": "BindingDB's records for doi:10.1016/s0960-894x(98)00641-6", "about": "(Kwansei Gakuin University, 1999)", "data": [{"experiment": "Compound was tested for inhibitory activity against type II Phospholipase A2 (PLA2) isolated from japanese mamushi (Agkistrodon halys blomhoffii) venom", "units": {"IC50": "µM"}, "values": [{"smiles": "CCCCCCCCCCCC(=O)N[C@H](CCCC)COP(=O)([O-])OCC[N+](C)(C)C", "note": "[(2-{[2-((S)-Dodecanoylamino)-hexyloxy]-hydroxy-phosphoryloxy}-ethyl)-trimethyl-ammonium]", "IC50": 5.3}, {"smiles": "CCCCCCCCCCCC(=O)N1C(=O)O[C@@H](COP(=O)([O-])OCC[N+](C)(C)C)[C@H]1CCC", "note": "[{2-[((4R,5S)-3-Dodecanoyl-2-oxo-4-propyl-oxazolidin-5-ylmethoxy)-hydroxy-phosphoryloxy]-ethyl}-trimethyl-ammonium]", "IC50": 45.8}, {"smiles": "CCCCCCCCCCCC(=O)N1C(=O)O[C@H](COP(=O)([O-])OCC[N+](C)(C)C)[C@H]1CCC", "note": "[{2-[((4R,5S)-3-Dodecanoyl-2-oxo-4-propyl-oxazolidin-5-ylmethoxy)-hydroxy-phosphoryloxy]-ethyl}-trimethyl-ammonium]", "IC50": 19.8}, {"smiles": "CCCCCCCCCCCC(=O)N1C(=O)O[C@H](COP(=O)([O-])OCC[N+](C)(C)C)[C@@H]1CCC", "note": "[{2-[((4S,5R)-3-Dodecanoyl-2-oxo-4-propyl-oxazolidin-5-ylmethoxy)-hydroxy-phosphoryloxy]-ethyl}-trimethyl-ammonium]", "IC50": 52.9}, {"smiles": "CCCCCCCCCCCC(=O)N1C(=O)O[C@@H](COP(=O)([O-])OCC[N+](C)(C)C)[C@@H]1CCC", "note": "[{2-[((4S,5S)-3-Dodecanoyl-2-oxo-4-propyl-oxazolidin-5-ylmethoxy)-hydroxy-phosphoryloxy]-ethyl}-trimethyl-ammonium]", "IC50": 40.1}, {"smiles": "CCCCCCCCCCCC(=O)N1C(=O)OC[C@@H]1COP(=O)([O-])OCC[N+](C)(C)C", "note": "[{2-[((R)-3-Dodecanoyl-2-oxo-oxazolidin-4-ylmethoxy)-hydroxy-phosphoryloxy]-ethyl}-trimethyl-ammonium]", "IC50": 31.3}]}]}
